Activity calls are given as the source filed them. The calls are words filed in the database; no cut-off is given here.
Assays:
[1] = system: Nippostrongylus brasiliensis; assay: Anthelmintic activity against Nippostrongylus brasiliensis at 50 ug/ml; type: functional, organism-based
[2] = Anthelmintic activity against Hypselodoris nana at 1000 ppm; type: functional
Nippostrongylus = assay: Anthelmintic activity against Nippostrongylus dubias at 1000 ppm; type: functional, organism-based

Row | SMILES | Activity [1] | Activity [2] | Activity (Nippostrongylus)
1 | CC(=O)SCC1=C[C@H]2Cc3occc3C(C)(C)[C@@H]2CC1 | Active | – | –
2 | CO[C@]12C[C@@H]3C=C(CSC(C)=O)CC[C@H]3C(C)(C)C1=CC(=O)O2 | inactive | – | –
3 | CC1(C)c2ccoc2C[C@@H]2C=C(CSSCC3=C[C@H]4Cc5occc5C(C)(C)[C@@H]4CC3)CC[C@H]21 | Active | – | –
4 | CC1=C[C@H]2Cc3occc3C(C)(C)[C@@H]2CC1 | Active | inactive | inactive

— ChEMBL document CHEMBL1151140, “Enantiomeric Relationships and Anthelmintic Activity of Dysinin Derivatives from Dysidea Marine Sponges” (J Nat Prod, 1990)
